The text below walks through data of patent publication US9840467B2, “Arylhydrazides containing a 2-pyridone moiety as selective antibacterial agents” (ABAC THERAPEUTICS, S.L., priority 2014, dated 2017).

The test system of one assay is K. pneumoniae. The experiment in a line: MIC, CLSI microtiter dilution, K. pneumoniae. It counts as cell-based, Klebsiella pneumoniae. The settings on record: Klebsiella pneumoniae. On the procedure: (§1) The products of the present invention were tested for their activity against A. baumannii as well as against the following bacteria: Staphylococcus aureus (S. aureus), Streptococcus pneumoniae (S. pneumoniae), Enterococcus faecium (E. faecium), Pseudomonas aeruginosa (P. aeruginosa), Klebsiella pneumoniae (K. pneumoniae.), Enterobacter aerogenes (E. aerogenes) and Escherichia coli (E. coli).
(§2) Minimal inhibitory concentrations (MICs) were determined using a standard microtiter dilution method, according to the Clinical and Laboratory Standards Institute (CLSI) procedures, in particular according to M07-A9: “Methods for Dilution Antimicrobial Susceptibility Tests for Bacteria That Grow Aerobically; Approved Standard—Ninth Edition”.
(§3) Briefly, compounds were dissolved with dimethyl sulfoxide (DMSO) at 12.8 mg/mL. Serial two-fold dilutions of compounds were performed in DMSO and 1 μl of each dilution were transferred into microtiter culture plates, followed by 100 μl of inoculated culture media to give a final microorganism concentration of 5×10^5 colony-forming units/mL. Plates were incubated at 37° C. for 24 hours and MICs determined as the lowest compound concentration that inhibited growth. Media used in determinations were Cation adjusted Mueller-Hinton Broth for all the microorganisms except for S. pneumoniae and E. faecium whose culture media were supplemented with 2.5% of lysed horse blood. Incubations were performed at air atmosphere except S. pneumoniae cultures that were incubated with 5% CO2 atmosphere.

A further assay concerns E. coli. The experiment in a line: MIC, CLSI microtiter dilution, E. coli. It counts as cell-based, Escherichia coli. The settings on record: Escherichia coli. On the procedure:
as §1, §2, §3

Another assay concerns P. aeruginosa. In words: MIC, CLSI microtiter dilution, P. aeruginosa. The settings on record: Pseudomonas aeruginosa. Format: cell-based, Pseudomonas aeruginosa. On the procedure:
as §1, §2, §3

For another assay, the system named is S. aureus. In words: MIC, CLSI microtiter dilution, S. aureus. It counts as cell-based, Staphylococcus aureus. To be noted: Staphylococcus aureus. On the procedure: as §1, §2, §3
A further assay deals with E. faecium. In words: MIC, CLSI microtiter dilution, E. faecium. Format: cell-based, Enterococcus faecium. To be noted: Enterococcus faecium. The procedure: as §1, §2, §3
Another assay deals with A. baumannii. The experiment in a line: MIC, CLSI microtiter dilution, A. baumannii. To be noted: Acinetobacter baumannii. Format: cell-based, Acinetobacter baumannii. The procedure: as §1, §2, §3
A further assay deals with S. pneumoniae. In words: MIC, CLSI microtiter dilution, S. pneumoniae. It counts as cell-based, Streptococcus pneumoniae. To be noted: Streptococcus pneumoniae. The procedure:
as §1, §2, §3

The next assay has as its system E. aerogenes. In words: MIC, CLSI microtiter dilution, E. aerogenes. Format: cell-based, Enterobacter aerogenes. To be noted: Klebsiella aerogenes. The procedure:
as §1, §2, §3

The mark [1] stands for this setting: K. pneumoniae, 37° C., 24 hours, Cation adjusted Mueller-Hinton Broth, read-out: MIC.
The mark [2] stands for this setting: E. coli, 37° C., 24 hours, Cation adjusted Mueller-Hinton Broth, read-out: MIC.
[3] abbreviates: P. aeruginosa, 37° C., 24 hours, Cation adjusted Mueller-Hinton Broth, read-out: MIC.
Where [4] appears, read: S. aureus, 37° C., 24 hours, Cation adjusted Mueller-Hinton Broth, read-out: MIC.
Setting [5] is: E. faecium, 37° C., 24 hours, 2.5% lysed horse blood, read-out: MIC.
[6] abbreviates: A. baumannii, 37° C., 24 hours, Cation adjusted Mueller-Hinton Broth, read-out: MIC.
[7] abbreviates: S. pneumoniae, 37° C., 24 hours, 2.5% lysed horse blood, 5% CO2, read-out: MIC.
[8] abbreviates: E. aerogenes, 37° C., 24 hours, Cation adjusted Mueller-Hinton Broth, read-out: MIC.

Values after ≈ are worked out from the molar mass of the structure shown. Like-named read-outs stand apart in the source and are kept apart here.

`CCn1cccc(C(=O)NNc2ccc(F)cc2)c1=O` [Ex. 16, 1-Ethyl-2-oxo-1,2-dihydropyridine-3-carboxylic acid N′-(4-fluorophenyl)-hydrazide]: the MIC in the assay with K. pneumoniae (setting [1]) is above 128 µg/mL; in the assay on E. coli (setting [2]), above 128 µg/mL; in the assay on P. aeruginosa (setting [3]), above 128 µg/mL; in the assay with S. aureus (setting [4]), above 128 µg/mL; in the assay with E. faecium (setting [5]), above 128 µg/mL; in the assay with A. baumannii (setting [6]), 0.5 µg/mL (≈ 1.82 µM). Also, the minimum inhibitory concentration (MIC) in the assay with S. pneumoniae (setting [7]) and in the assay on E. aerogenes (setting [8]) was above 128 µg/mL in each case.
On to `Cn1ccc(C(=O)NNc2ccc(F)cc2)cc1=O` [Ex. 18, 1-Methyl-2-oxo-1,2-dihydropyridine-4-carboxylic acid N′-(4-fluorophenyl)-hydrazide], for which the MIC in the assay on K. pneumoniae (setting [1]) is above 128 µg/mL; in the assay on E. coli (setting [2]), above 128 µg/mL; in the assay with P. aeruginosa (setting [3]), above 128 µg/mL; in the assay on S. aureus (setting [4]), above 128 µg/mL; in the assay on E. faecium (setting [5]), above 128 µg/mL; in the assay on A. baumannii (setting [6]), 0.25 µg/mL (≈ 0.957 µM). The minimum inhibitory concentration (MIC) in the assay with S. pneumoniae (setting [7]) and in the assay with E. aerogenes (setting [8]) was above 128 µg/mL each time.
With `Cn1c(C(=O)NNc2ccc(Cl)cc2)cccc1=O` [Ex. 10, 1-Methyl-6-oxo-1,6-dihydropyridine-2-carboxylic acid N′-(4-chlorophenyl)-hydrazide], the MIC with K. pneumoniae (24 h) was above 128 µg/mL; against E. coli (24 h), above 128 µg/mL; in the assay with P. aeruginosa (24 h), above 128 µg/mL; against S. aureus (24 h) it was above 128 µg/mL; with E. faecium (24 h), above 128 µg/mL; against A. baumannii (24 h), 0.25 µg/mL (≈ 0.9 µM). Besides, the minimum inhibitory concentration (MIC) with S. pneumoniae (24 h) and in the assay with E. aerogenes (24 h) was above 128 µg/mL throughout.
Turning to `O=C(NNc1ccc(F)cc1)c1cccc(=O)n1CC(F)(F)F` [Ex. 8, 6-Oxo-1-(2,2,2-trifluoroethyl)-1,6-dihydropyridine-2-carboxylic acid N′-(4-fluorophenyl)-hydrazide], the minimal inhibitory concentration (MIC) is above 128 µg/mL against K. pneumoniae (24 h); above 128 µg/mL in the assay on E. coli (24 h); above 128 µg/mL against P. aeruginosa (24 h); above 128 µg/mL in the assay with S. aureus (24 h); above 128 µg/mL in the assay on E. faecium (24 h); 0.25 µg/mL (≈ 0.759 µM) against A. baumannii (24 h). For the same compound, the MIC against S. pneumoniae (24 h) and against E. aerogenes (24 h) was above 128 µg/mL each time.
For the compound `Cc1ccc(NNC(=O)c2cccc(=O)n2C)cc1` [Ex. 11, 1-Methyl-6-oxo-1,6-dihydropyridine-2-carboxylic acid N′-(4-methylphenyl)-hydrazide], the MIC is above 128 µg/mL against K. pneumoniae (24 h); above 128 µg/mL against E. coli (24 h); above 128 µg/mL against P. aeruginosa (24 h); above 128 µg/mL against S. aureus (24 h); above 128 µg/mL against E. faecium (24 h); 0.5 µg/mL (≈ 1.94 µM) against A. baumannii (24 h). Besides, the MIC in the assay on S. pneumoniae (24 h) and in the assay on E. aerogenes (24 h) was above 128 µg/mL throughout.
For the compound `Cn1cccc(C(=O)NNc2ccc(F)cc2)c1=O` [Ex. 17, 1-Methyl-2-oxo-1,2-dihydropyridine-3-carboxylic acid N′-(4-fluorophenyl)-hydrazide], the MIC against K. pneumoniae (24 h) was above 128 µg/mL; against E. coli (24 h) it was above 128 µg/mL; against P. aeruginosa (24 h) it was above 128 µg/mL; against S. aureus (24 h) it was above 128 µg/mL; in the assay on E. faecium (24 h), above 128 µg/mL; against A. baumannii (24 h), 0.5 µg/mL (≈ 1.91 µM). Moreover, the MIC in the assay with S. pneumoniae (24 h) and against E. aerogenes (24 h) was above 128 µg/mL throughout.
